Some test systems named below: BT-549 breast; MCF7 breast; MDA-MB-435; T-47D breast.
Holding throughout (experiment): DTP human tumour cell line panel, 48 h

In general, GI50 refers to the concentration giving 50% growth inhibition. The term TGI denotes the concentration giving total growth inhibition. High values mean lower sensitivity of the cells, low ones greater sensitivity of the cells.

Structures are written as SMILES.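 Test compounds were applied to cells in 96-well plates for 48 hours at 5 doses. The concentration for 50% growth inhibition is given as GI50. TGI marks complete inhibition of growth.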

For `CO[C@@H]1[C@H]2[C@@H](C)c3ccoc3C[C@@H]2[C@@]2(C)CC[C@H](OC(=O)c3ccccc3)[C@](C)(C(=O)O)[C@]2(O)[C@@H]1OC(=O)c1ccccc1`, the GI50 was 8.99 µM in the assay with BT-549 breast, 17400 nM in the assay with MCF7 breast and 7970 nM in the assay on MDA-MB-435. Further, the figures for the total growth inhibition concentration (TGI) in the assay with BT-549 breast, with MCF7 breast and in the assay on MDA-MB-435 were 29.7 µM, more than 50 µM and 19.5 µM, respectively.
With `O=c1c(-c2ccc(O)cc2)coc2cc(OC3OC(CO)C(O)C(O)C3O)cc(O)c12` (stereo not drawn), the GI50 in the assay with T-47D breast, in the assay with MCF7 breast and with MDA-MB-435 was more than 100000 nM throughout. Moreover, the concentration for total growth inhibition (TGI) in the assay with T-47D breast, in the assay on BT-549 breast, in the assay on MCF7 breast and in the assay on MDA-MB-435 was more than 100 µM throughout.
In the case of `Cc1cn2c(/C=C3/C(=O)Nc4ccc(F)cc43)c(C)nc2s1`, the GI50 in the assay with T-47D breast is 10200 nM; in the assay on BT-549 breast, 8.52 µM; with MCF7 breast it was 1920 nM; in the assay on MDA-MB-435, 1260 nM. Further, the TGI with T-47D breast is more than 50 µM; in the assay with BT-549 breast, more than 50 µM; in the assay on MCF7 breast, more than 50 µM; with MDA-MB-435, 2.97 µM.
Consider `CCCCCCN(C)Cc1ccc(OCCOc2ccc(CN(C)CCCCCC)cc2)cc1`, for which the GI50 with T-47D breast is 1320 nM; with BT-549 breast it was 1.47 µM; in the assay with MCF7 breast, 1400 nM; in the assay on MDA-MB-435, 1040 nM. The TGI stood at 3.26 µM with T-47D breast, 3.01 µM in the assay on BT-549 breast, 2.79 µM in the assay with MCF7 breast and 2.5 µM with MDA-MB-435.
For the molecule `O=C(Nc1nc(-c2ccc(Cl)cc2)nc2c1sc(=S)n2-c1ccccc1)C(F)(F)F`, the GI50 is 2050 nM in the assay with T-47D breast, 6.37 µM in the assay on BT-549 breast, 10200 nM in the assay with MCF7 breast and 5400 nM with MDA-MB-435. Besides, the concentration for total growth inhibition (TGI) in the assay with T-47D breast is 5.05 µM; in the assay with BT-549 breast, 38.2 µM; in the assay on MCF7 breast, more than 100 µM; in the assay with MDA-MB-435 it was more than 100 µM.
As to `O=C(NNC(=S)Nc1ccccc1)c1ccccn1`, the GI50 in the assay on T-47D breast was 6550 nM; in the assay on BT-549 breast, 7.41 µM; in the assay on MCF7 breast, 3140 nM; with MDA-MB-435 it was 4290 nM. In addition, the TGI in the assay with T-47D breast, in the assay with BT-549 breast, with MCF7 breast and in the assay on MDA-MB-435 was more than 100 µM in each case.
`COc1ccc(-c2nc(-c3cnccn3)n(COCCO)n2)cc1`: the TGI with T-47D breast, in the assay on BT-549 breast, in the assay with MCF7 breast and in the assay with MDA-MB-435 was more than 100 µM each time.
On to `Nc1nc(N)c(N=Nc2ccc(C(=O)O)c(O)c2)c(N)n1`, for which the concentration for total growth inhibition (TGI) with BT-549 breast, in the assay on MCF7 breast and with MDA-MB-435 was more than 100 µM each time.
Turning to `CC[C@@H](C)Nc1cc(C(=O)NC2CC3CCC(C2)N3c2ccc(C(=O)C3CC3)cn2)c(C)cc1C(N)=O` (stereo partly drawn), the concentration for 50% growth inhibition (GI50) with T-47D breast is 37.8 nM; with BT-549 breast, 5.54 µM; in the assay with MCF7 breast, less than 17.2 nM; with MDA-MB-435 it was 39.1 nM. In addition, the total growth inhibition concentration (TGI) was 36 µM with T-47D breast, more than 84.9 µM in the assay with BT-549 breast, more than 59.6 µM in the assay on MCF7 breast and more than 39.3 µM with MDA-MB-435.
For the molecule `CC1CC(C)C2=NOS3=C2C1=NO3` (stereo not drawn), the TGI in the assay with T-47D breast, with MCF7 breast and with MDA-MB-435 was more than 100 µM in each case.
As to `COc1ccc2c(c1)C(=O)c1c-2n(CCCN)c(=O)c2cc(OC)c(OC)cc12`, in the assay with MDA-MB-435, the GI50 was 1330 nM and the total growth inhibition concentration (TGI) was determined as 2.86 µM.
For the molecule `COC(=O)C1=C(O)[C@H](C(=O)OC)[C@]2(O)[C@@H](C(=O)OC)[C@H]1C[C@@H](c1ccc(OC(=O)/C=C/c3ccco3)cc1)[C@@H]2C(=O)OC`, the GI50 in the assay with T-47D breast is more than 100000 nM; with BT-549 breast, 22.5 µM; in the assay on MCF7 breast it was 40500 nM; in the assay with MDA-MB-435, 21700 nM. Also, the TGI in the assay on T-47D breast was more than 100 µM; with BT-549 breast, 49.4 µM; in the assay with MCF7 breast it was more than 100 µM; in the assay with MDA-MB-435 it was 66.8 µM.
Consider `O=C(Nc1cccnc1)c1ccc2ccc3ccc(C(=O)Nc4cccnc4)nc3c2n1`, for which the 50% growth inhibitory concentration (GI50) with T-47D breast was 257 nM; with MCF7 breast, 137 nM; in the assay with MDA-MB-435 it was 184 nM. For the same molecule, the total growth inhibition concentration (TGI) with T-47D breast, in the assay on MCF7 breast and with MDA-MB-435 was more than 100 µM each time.
In the case of `O=C(Cn1c(C(=O)c2ccccc2)nc2ccccc21)c1ccc(F)cc1`, the GI50 with T-47D breast was 3380 nM; in the assay with BT-549 breast it was 9.76 µM; in the assay with MCF7 breast it was 3270 nM; in the assay on MDA-MB-435 it was 1190 nM. The values for the TGI in the assay with T-47D breast, in the assay with BT-549 breast and in the assay with MCF7 breast were more than 100 µM, more than 100 µM and more than 72 µM, respectively.
As for `C=C1NC(=O)C(CC(C(=O)C(=O)Nc2c(C)cccc2C(C)(C)C)C(=O)c2ccc3ccccc3c2)C(=O)N1` (stereo not drawn), the TGI with T-47D breast, in the assay with BT-549 breast, with MCF7 breast and with MDA-MB-435 was more than 100 µM each time.
With `CCOc1c(C#N)c2c(N)ncnc2n1C1OC(CO)C(O)C1O` (stereo not drawn), the GI50 in the assay on T-47D breast is 1980 nM; in the assay on BT-549 breast, 2.58 µM; in the assay on MCF7 breast it was 2450 nM; in the assay with MDA-MB-435 it was 3150 nM. Also, the total growth inhibition concentration (TGI) in the assay with T-47D breast was 20.2 µM; in the assay with BT-549 breast, 19 µM; in the assay on MCF7 breast, more than 100 µM; in the assay on MDA-MB-435, 34.6 µM.
For `CC(=O)O[C@H]1C(=O)[C@@]2(C)[C@H]([C@H](OC(=O)c3ccccc3)[C@@]3(O)C[C@H](O)C(C)=C1C3(C)C)[C@]1(OC(C)=O)CO[C@@H]1C[C@@H]2O`, the total growth inhibition concentration (TGI) in the assay with T-47D breast is more than 100 µM; in the assay with BT-549 breast it was more than 100 µM; with MCF7 breast, more than 100 µM; in the assay on MDA-MB-435, 27.5 µM.
For the molecule `CN1CCN(Cc2ccc(NC(=O)c3cncc(C#Cc4cnn5ccccc45)c3)cc2C(F)(F)F)CC1`, the GI50 is 1400 nM with T-47D breast, 1.47 µM in the assay with BT-549 breast, 408 nM with MCF7 breast and 729 nM in the assay with MDA-MB-435. Moreover, the concentration for total growth inhibition (TGI) in the assay with T-47D breast turned out to be 5.78 µM; in the assay with BT-549 breast, 4.11 µM; in the assay with MCF7 breast, 2.29 µM; with MDA-MB-435, 1.7 µM.
As to `CC[C@]12C=CCN3CC[C@@]4(c5ccc(OC)cc5N(C)[C@H]4[C@@](O)(C(=O)OC)[C@@H]1OC(=O)CCC(=O)N[C@H](Cc1c[nH]c4ccccc14)C(=O)OC)[C@@H]32`, the GI50 in the assay on T-47D breast was 11000 nM; in the assay on BT-549 breast it was 7.68 µM; with MCF7 breast, 2980 nM; in the assay with MDA-MB-435 it was 5420 nM. In addition, the TGI was 30.3 µM in the assay with T-47D breast, 41 µM with BT-549 breast, 16.1 µM in the assay with MCF7 breast and 22.5 µM with MDA-MB-435.

Values taken from PubChem BioAssay (NCI).
